pEC50, pKi: −log10 of the molar value. Active and inactive are the calls of the source. The rule behind the calls is not given here.

Experiment [1] addresses Neuronal acetylcholine receptor; alpha4/beta2 (Rattus norvegicus, UniProt P09483+P12390). Kind of experiment: Displacement of [3H]epibatidine from alpha4beta2 nAChR in rat cortex membranes. It counts as cell membranes. A general note: Loss of bound radioactivity is the signal in a displacement assay; it reports binding, not function.
In experiment [2] the target is Neuronal acetylcholine receptor subunit alpha-7 (Rattus norvegicus, UniProt Q05941). Briefly: Displacement of [125I]alpha-bungarotoxin from alpha7 nAChR in rat hippocampal membranes. Format: cell membranes.
The species entered for the next experiment is Rattus norvegicus. Kind of experiment: Selectivity ratio of Ki for alpha7 nAChR in rat hippocampal membranes to Ki for alpha4beta2 nAChR in rat cortex membranes. It counts as cell membranes.
Experiment [3] concerns the target T1, Neuronal acetylcholine receptor; alpha4/beta2 (Homo sapiens, UniProt P17787+P43681). Kind of experiment: Agonist activity at alpha4beta2 nAChR (unknown origin). Format: protein-complex assay.
Experiment [4] addresses T2, Neuronal acetylcholine receptor; alpha3/beta4 (Homo sapiens, UniProt P30926+P32297). Kind of experiment: Agonist activity at human alpha3beta4 nAChR expressed in rat GH4C1 cells assessed as inward channel current amplitude at -70 mV holding potential by whole cell electrophysiology method. Format: cell-based.
Experiment [5] in a line: Selectivity ratio of Ki for human alpha3beta4 nAChR expressed in HEK293 cell membranes to Ki for alpha4beta2 nAChR in rat cortex membranes. It counts as cell-based.
Experiment [6] has as its target T2, Neuronal acetylcholine receptor; alpha3/beta4. Briefly: Displacement of [3H]epibatidine from human alpha3beta4 nAChR expressed in HEK293 cell membranes.
In experiment [7] the target is Neuronal acetylcholine receptor subunit alpha-7 (Homo sapiens) (UniProt P36544). Briefly: Agonist activity at human alpha7 nAChR expressed in rat GH4C1 cells assessed as inward channel current amplitude at 100 uM at -70 mV holding potential by whole cell electrophysiology method. It counts as cell-based.
Experiment [8] concerns the target T1, Neuronal acetylcholine receptor; alpha4/beta2. Briefly: Agonist activity at human alpha4beta2 nAChR expressed in rat GH4C1 cells assessed as inward channel current amplitude at -70 mV holding potential by whole cell electrophysiology method. It counts as cell-based.
The target in experiment [9] is T2, Neuronal acetylcholine receptor; alpha3/beta4. Briefly: Agonist activity at human alpha3beta4 nAChR expressed in rat GH4C1 cells assessed as inward channel current amplitude at 100 uM at -70 mV holding potential by whole cell electrophysiology method relative to acetylcholine. It counts as cell-based.
Experiment [10] deals with T1, Neuronal acetylcholine receptor; alpha4/beta2. Briefly: Agonist activity at human alpha4beta2 nAChR expressed in rat GH4C1 cells assessed as inward channel current amplitude at 100 uM at -70 mV holding potential by whole cell electrophysiology method relative to acetylcholine. It counts as cell-based.

Neuronal acetylcholine receptor subunit alpha-7, sequence (Q05941 whole entry): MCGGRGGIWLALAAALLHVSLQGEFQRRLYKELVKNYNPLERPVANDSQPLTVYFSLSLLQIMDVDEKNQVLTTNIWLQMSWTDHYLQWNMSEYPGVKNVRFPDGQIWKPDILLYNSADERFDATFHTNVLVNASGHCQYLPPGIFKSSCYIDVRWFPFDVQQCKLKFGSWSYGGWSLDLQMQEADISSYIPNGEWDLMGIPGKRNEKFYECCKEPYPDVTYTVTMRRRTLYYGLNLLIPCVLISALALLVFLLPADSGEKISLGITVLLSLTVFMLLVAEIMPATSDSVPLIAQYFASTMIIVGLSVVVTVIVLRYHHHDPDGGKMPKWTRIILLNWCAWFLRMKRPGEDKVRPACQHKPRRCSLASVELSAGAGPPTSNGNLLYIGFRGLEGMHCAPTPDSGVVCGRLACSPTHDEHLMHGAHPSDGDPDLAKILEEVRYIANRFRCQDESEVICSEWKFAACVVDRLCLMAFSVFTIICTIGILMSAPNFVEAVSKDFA
T1 sequence (P17787 whole entry): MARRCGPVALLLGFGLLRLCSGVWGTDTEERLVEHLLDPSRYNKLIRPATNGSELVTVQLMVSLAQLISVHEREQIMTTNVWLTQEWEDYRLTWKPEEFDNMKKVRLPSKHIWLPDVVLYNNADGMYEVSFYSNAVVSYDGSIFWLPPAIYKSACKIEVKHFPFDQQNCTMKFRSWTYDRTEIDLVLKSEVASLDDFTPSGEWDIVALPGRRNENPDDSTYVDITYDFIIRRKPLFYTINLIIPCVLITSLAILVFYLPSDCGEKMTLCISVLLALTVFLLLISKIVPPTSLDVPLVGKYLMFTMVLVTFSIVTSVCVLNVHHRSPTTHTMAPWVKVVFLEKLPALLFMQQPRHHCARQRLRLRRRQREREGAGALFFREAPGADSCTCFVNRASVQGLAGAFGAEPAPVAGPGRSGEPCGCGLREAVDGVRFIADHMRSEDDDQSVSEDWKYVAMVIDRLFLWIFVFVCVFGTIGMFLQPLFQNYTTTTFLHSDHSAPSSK
T1 sequence (P43681 whole entry): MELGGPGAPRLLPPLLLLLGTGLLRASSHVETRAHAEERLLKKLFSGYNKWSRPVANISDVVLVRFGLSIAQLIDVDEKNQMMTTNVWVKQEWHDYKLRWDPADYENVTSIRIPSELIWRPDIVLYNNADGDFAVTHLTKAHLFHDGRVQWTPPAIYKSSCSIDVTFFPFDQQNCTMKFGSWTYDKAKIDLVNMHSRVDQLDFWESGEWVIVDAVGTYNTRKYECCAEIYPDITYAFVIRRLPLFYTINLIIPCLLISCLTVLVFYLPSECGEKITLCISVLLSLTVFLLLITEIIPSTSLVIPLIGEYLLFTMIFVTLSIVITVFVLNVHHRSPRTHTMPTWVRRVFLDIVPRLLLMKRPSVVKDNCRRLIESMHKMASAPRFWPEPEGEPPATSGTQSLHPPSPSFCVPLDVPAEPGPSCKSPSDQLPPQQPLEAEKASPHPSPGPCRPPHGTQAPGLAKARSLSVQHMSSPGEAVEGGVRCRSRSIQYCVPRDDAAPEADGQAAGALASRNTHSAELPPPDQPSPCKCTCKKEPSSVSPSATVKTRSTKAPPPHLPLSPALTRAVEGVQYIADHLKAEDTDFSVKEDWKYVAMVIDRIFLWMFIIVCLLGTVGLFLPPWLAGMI
Neuronal acetylcholine receptor; alpha4/beta2 (Rattus norvegicus, UniProt P09483+P12390), sequence (P09483 whole entry): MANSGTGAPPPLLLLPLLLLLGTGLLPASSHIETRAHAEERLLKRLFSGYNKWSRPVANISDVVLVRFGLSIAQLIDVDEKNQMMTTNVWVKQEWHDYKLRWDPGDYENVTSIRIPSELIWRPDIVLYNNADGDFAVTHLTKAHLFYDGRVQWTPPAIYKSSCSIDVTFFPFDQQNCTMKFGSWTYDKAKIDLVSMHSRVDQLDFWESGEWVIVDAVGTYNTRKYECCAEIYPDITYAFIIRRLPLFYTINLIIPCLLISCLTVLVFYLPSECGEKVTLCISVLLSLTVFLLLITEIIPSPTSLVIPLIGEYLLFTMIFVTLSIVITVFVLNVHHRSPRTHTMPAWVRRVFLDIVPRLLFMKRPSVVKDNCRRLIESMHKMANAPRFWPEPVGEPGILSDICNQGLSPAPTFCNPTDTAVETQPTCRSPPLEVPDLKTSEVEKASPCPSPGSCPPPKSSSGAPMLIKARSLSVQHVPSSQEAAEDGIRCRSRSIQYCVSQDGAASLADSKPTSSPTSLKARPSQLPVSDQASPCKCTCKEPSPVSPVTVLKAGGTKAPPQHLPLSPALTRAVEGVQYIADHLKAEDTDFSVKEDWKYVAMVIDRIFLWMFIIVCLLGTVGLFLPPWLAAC
Neuronal acetylcholine receptor; alpha4/beta2 (Rattus norvegicus, UniProt P09483+P12390), sequence (P12390 whole entry): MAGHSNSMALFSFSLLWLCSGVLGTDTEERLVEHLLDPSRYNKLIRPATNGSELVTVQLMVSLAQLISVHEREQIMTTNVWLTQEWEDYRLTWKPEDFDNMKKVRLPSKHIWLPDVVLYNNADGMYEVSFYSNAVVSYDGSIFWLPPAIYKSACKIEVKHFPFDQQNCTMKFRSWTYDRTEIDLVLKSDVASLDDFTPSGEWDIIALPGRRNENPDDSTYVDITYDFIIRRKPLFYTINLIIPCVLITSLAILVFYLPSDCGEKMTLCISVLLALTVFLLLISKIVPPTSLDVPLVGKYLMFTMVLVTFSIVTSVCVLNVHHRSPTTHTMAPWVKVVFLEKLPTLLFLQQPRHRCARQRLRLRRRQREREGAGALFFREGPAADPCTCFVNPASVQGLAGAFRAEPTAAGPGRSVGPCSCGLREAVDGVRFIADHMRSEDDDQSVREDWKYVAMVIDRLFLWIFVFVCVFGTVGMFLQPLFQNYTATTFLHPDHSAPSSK
T2 sequence (P30926 whole entry): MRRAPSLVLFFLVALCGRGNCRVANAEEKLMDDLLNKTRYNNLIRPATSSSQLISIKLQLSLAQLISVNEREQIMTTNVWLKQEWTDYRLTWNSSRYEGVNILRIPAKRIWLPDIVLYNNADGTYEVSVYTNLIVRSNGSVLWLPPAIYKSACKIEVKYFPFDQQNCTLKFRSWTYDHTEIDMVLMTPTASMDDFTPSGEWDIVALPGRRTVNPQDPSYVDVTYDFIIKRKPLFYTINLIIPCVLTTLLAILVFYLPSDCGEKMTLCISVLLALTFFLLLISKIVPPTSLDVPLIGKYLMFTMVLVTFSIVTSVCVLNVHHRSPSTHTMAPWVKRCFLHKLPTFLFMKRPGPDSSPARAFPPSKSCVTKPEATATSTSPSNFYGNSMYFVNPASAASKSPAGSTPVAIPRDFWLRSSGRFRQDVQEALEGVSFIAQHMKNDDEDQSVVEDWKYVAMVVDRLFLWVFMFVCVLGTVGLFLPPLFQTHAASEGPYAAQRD
T2 sequence (P32297 whole entry): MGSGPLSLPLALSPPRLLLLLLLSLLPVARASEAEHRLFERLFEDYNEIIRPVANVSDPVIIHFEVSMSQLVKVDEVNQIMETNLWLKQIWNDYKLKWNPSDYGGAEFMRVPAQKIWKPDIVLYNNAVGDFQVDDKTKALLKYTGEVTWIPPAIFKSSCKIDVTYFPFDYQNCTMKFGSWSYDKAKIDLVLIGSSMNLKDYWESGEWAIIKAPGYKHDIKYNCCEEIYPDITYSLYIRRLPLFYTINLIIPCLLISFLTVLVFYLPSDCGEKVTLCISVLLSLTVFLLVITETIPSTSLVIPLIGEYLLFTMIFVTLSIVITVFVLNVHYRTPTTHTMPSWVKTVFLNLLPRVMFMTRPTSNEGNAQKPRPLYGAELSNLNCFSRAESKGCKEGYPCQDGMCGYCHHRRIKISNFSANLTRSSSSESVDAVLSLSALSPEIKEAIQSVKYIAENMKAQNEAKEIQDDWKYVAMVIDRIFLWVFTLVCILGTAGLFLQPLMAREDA
Neuronal acetylcholine receptor subunit alpha-7 (Homo sapiens), sequence (P36544 whole entry): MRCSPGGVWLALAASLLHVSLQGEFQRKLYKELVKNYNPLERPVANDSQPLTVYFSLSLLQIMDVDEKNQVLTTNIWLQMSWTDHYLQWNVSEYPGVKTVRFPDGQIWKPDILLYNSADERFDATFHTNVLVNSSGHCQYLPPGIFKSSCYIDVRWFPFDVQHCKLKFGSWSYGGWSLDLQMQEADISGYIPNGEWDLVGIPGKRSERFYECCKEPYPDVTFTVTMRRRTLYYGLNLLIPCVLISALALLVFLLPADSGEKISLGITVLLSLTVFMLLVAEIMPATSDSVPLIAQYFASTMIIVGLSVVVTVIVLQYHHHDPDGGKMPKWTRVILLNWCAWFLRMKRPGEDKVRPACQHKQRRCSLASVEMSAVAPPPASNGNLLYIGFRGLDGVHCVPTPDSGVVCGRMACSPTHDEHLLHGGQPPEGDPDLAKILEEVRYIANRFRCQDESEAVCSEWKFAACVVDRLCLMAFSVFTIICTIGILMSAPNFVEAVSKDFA

In the case of `Clc1cccc(Nc2ccc(N3CC4CC(C3)N4)nn2)c1`, the pKi in [1] was 5.81; in experiment [2], 4.38. Besides, the Ratio Ki in the experiment listed under Rattus norvegicus was 27.
In [3], `Clc1ccc(N2CC3CC2CN3)cn1` (centres undefined) had a pKi of 10.74.
Turning to `O=[N+]([O-])c1ccc(Nc2ccc(N3CC4CC(C3)N4)cn2)cc1`, the negative logarithm of the EC50 (pEC50) in experiment [4] and in experiment [8] was under 5.00 throughout. The pKi in experiment [1] was 8.75; in [6] it was 7.60; in [2], 5.39. Further, the Ratio Ki amounted to 14 in experiment [5] and 2330 in the experiment filed under Rattus norvegicus. The result in experiment [7] was inactive.
On to `FC(F)(F)c1ccc(Nc2cncc(N3CC4CC(C3)N4)c2)cc1`, for which the pKi in experiment [1] is 9.43; in [6], 8.99; in [2] it was 6.73. In addition, the Ratio Ki in experiment [5] amounted to 3; in the experiment listed under Rattus norvegicus, 499.
In the case of `c1cncc(N2C[C@@H]3C[C@H]2CN3)c1`, the pKi in [3] is 9.82.
As for `Clc1ccc(Nc2ccc(N3CC4CC(C3)N4)nn2)cc1`, the pKi in experiment [1] was 7.04; in [2], 4.76. In addition, the Ratio Ki in the experiment listed under Rattus norvegicus came out at 191.
In turn, `Clc1ccc(N2CC3CCC(C2)N3)nn1` showed a pKi in [3] of 8.39.
With `Clc1cccc(Nc2ccc(N3CC4CC(C3)N4)cn2)c1`, the pKi in [1] is 8.66; in experiment [6], 8.32; in experiment [2], 5.48. Moreover, the Ratio Ki in experiment [5] is 2; in the experiment listed under Rattus norvegicus it was 1500.
The corresponding values for `Clc1cccc(Nc2cncc(N3CC4CC(C3)N4)c2)c1` are 9.91, 6.53, 5.92, 2360 and 9680.
The corresponding values for `FC(F)(F)c1ccc(Nc2ccc(N3CC4CC(C3)N4)nn2)cc1` are 8.16, 6.94, 5.69, 17 and 294.
`CN(c1ccccc1)c1ccc(N2CC3CC(C2)N3)nn1`: the pKi was 5.84 in experiment [1] and 4.00 in experiment [2]. Also, the Ratio Ki in the experiment listed under Rattus norvegicus was determined as 71.
The corresponding values for `Fc1ccc(Nc2ccc(N3CC4CC(C3)N4)nn2)cc1` are 6.06, 3.95 and 128.
The corresponding values for `CN(c1ccccc1)c1cncc(N2CC3CC(C2)N3)c1` are 8.69, 6.50 and 154.
The corresponding values for `O=[N+]([O-])c1ccc(Nc2ccc(N3CC4CC(C3)N4)nn2)cc1` are 7.06, 5.16 and 80.
For `Clc1ccc(Nc2ccc(N3CC4CC(C3)N4)cn2)cc1Cl`, the pKi in experiment [1] was 8.64; in experiment [6], 7.39; in experiment [2], 5.69. Also, the Ratio Ki in experiment [5] stood at 18; in the experiment filed under Rattus norvegicus, 887.
Molecule `Clc1ccc(N2CC3CCC(C2)N3)cn1` gave a pKi in [3] of 9.02.
As for `FC(F)(F)c1ccc(Nc2ccc(N3CC4CC(C3)N4)cn2)cc1`, the pKi in experiment [1] was 9.24; in [6], 9.09; in experiment [2] it was 6.63. Besides, the Ratio Ki in experiment [5] amounted to 1; in the experiment filed under Rattus norvegicus, 413.
For the molecule `c1cc2c(cc1Nc1ccc(N3CC4CC(C3)N4)cn1)OCO2`, the negative logarithm of the Ki (pKi) in [1] is 7.39; in experiment [2], 5.21. Further, the Ratio Ki in the experiment filed under Rattus norvegicus was found to be 150.
Take `COc1ccc(Nc2ccc(N3CC4CC(C3)N4)cn2)cc1`: the pKi in [1] was 8.14; in experiment [6], 8.04; in experiment [2], 5.52. Further, the Ratio Ki in [5] came to 1; in the experiment filed under Rattus norvegicus, 412.
As for `Clc1ccc(Nc2ccc(N3CC4CC(C3)N4)nn2)cc1Cl`, the negative-log Ki (pKi) in experiment [1] was 6.29; in experiment [2] it was 5.29. Moreover, the Ratio Ki in the experiment filed under Rattus norvegicus amounted to 10.
Take `Cc1ccc(Nc2cncc(N3CC4CC(C3)N4)c2)cc1`: the negative-log Ki (pKi) in [1] is 9.83; in experiment [6], 8.85; in [2] it was 6.52. Further, the Ratio Ki in experiment [5] is 9; in the experiment filed under Rattus norvegicus it was 2030.
For `Oc1ccc(Nc2cncc(N3CC4CC(C3)N4)c2)cc1`, the negative-log Ki (pKi) in [1] is 9.47; in experiment [6] it was 9.01; in experiment [2], 5.68. For the same molecule, the Ratio Ki was determined as 3 in experiment [5] and 6140 in the experiment listed under Rattus norvegicus.
Turning to `c1ccc(Nc2ccc(N3CC4CC(C3)N4)nn2)cc1`, the negative logarithm of the Ki (pKi) in experiment [1] was 6.36; in experiment [2], 4.98. In the experiment filed under Rattus norvegicus, the Ratio Ki was 24.
For `Oc1ccc(Nc2ccc(N3CC4CC(C3)N4)cn2)cc1`, the results for the negative logarithm of the Ki (pKi) in experiment [1], in experiment [6] and in [2] were 8.15, 6.78 and 5.66, respectively. The Ratio Ki in experiment [5] was 23; in the experiment filed under Rattus norvegicus, 310.
Take `Clc1ccc(Nc2cncc(N3CC4CC(C3)N4)c2)cc1Cl`: the negative logarithm of the Ki (pKi) in experiment [1] was 8.90; in [2], 5.72. The Ratio Ki in the experiment filed under Rattus norvegicus turned out to be 1520.
Take `c1ccc(Nc2ccc(N3CC4CC(C3)N4)cn2)cc1`: the pKi in [1] is 8.58; in [2], 6.32. The Ratio Ki in the experiment filed under Rattus norvegicus turned out to be 179.
The corresponding values for `COc1ccc(Nc2ccc(N3CC4CC(C3)N4)nn2)cc1` are 6.24, 4.30 and 87.
For `Cc1ccc(Nc2ccc(N3CC4CC(C3)N4)nn2)cc1` the same measures were 7.35, 4.66 and 490.
With `O=[N+]([O-])c1ccc(Nc2cncc(N3CC4CC(C3)N4)c2)cc1`, the pKi in experiment [1] is 10.65; in [6], 9.16; in experiment [2] it was 6.62. In addition, the Ratio Ki in experiment [5] came to 30; in the experiment listed under Rattus norvegicus it was 10700.
On to `Clc1ccc(Nc2ccc(N3CC4CC(C3)N4)cn2)cc1`, for which the pKi is 8.60 in experiment [1] and 6.08 in [2]. Also, the Ratio Ki in the experiment listed under Rattus norvegicus was 330.
On to `c1cncc(N2CC3CCC(C2)N3)c1`, for which the negative logarithm of the Ki (pKi) in experiment [3] is 9.40.
Turning to `Clc1ccc(Nc2cncc(N3CC4CC(C3)N4)c2)cc1`, the pKi in experiment [1] is 9.93; in experiment [6] it was 8.92; in experiment [2] it was 6.94. Besides, the Ratio Ki in experiment [5] came out at 10; in the experiment listed under Rattus norvegicus, 983.
With `COc1ccc(Nc2cncc(N3CC4CC(C3)N4)c2)cc1`, the results for the negative logarithm of the EC50 (pEC50) in [4] and in [8] were 5.54 and 5.72, respectively. Further, the pKi in experiment [1] is 10.22; in experiment [6] it was 8.66; in experiment [2] it was 6.08. Also, the Ratio Ki in experiment [5] was found to be 37; in the experiment listed under Rattus norvegicus, 14000. Moreover, the result in experiment [7] was inactive. Also, the Emax in experiment [9] stood at 42.3%; in experiment [10] it was 11%.
Regarding `c1cncc(N2C[C@H]3C[C@@H]2CN3)c1`, the pKi in experiment [3] is 10.70.
As to `c1ccc(Nc2cncc(N3CC4CC(C3)N4)c2)cc1`, the pKi was 10.09 in experiment [1], 9.10 in [6] and 7.57 in experiment [2]. The Ratio Ki in experiment [5] was determined as 10; in the experiment filed under Rattus norvegicus it was 333.
The corresponding values for `Fc1ccc(Nc2ccc(N3CC4CC(C3)N4)cn2)cc1` are 8.62, 7.89, 5.89, 5 and 546.
Regarding `Cc1ccc(Nc2ccc(N3CC4CC(C3)N4)cn2)cc1`, the negative-log Ki (pKi) was 7.28 in [1] and 4.05 in experiment [2]. Besides, in the experiment listed under Rattus norvegicus, the Ratio Ki was found to be 1700.
`Fc1ccc(Nc2cncc(N3CC4CC(C3)N4)c2)cc1`: the negative logarithm of the Ki (pKi) in experiment [1] is 10.04; in experiment [6] it was 8.90; in experiment [2], 6.36. Besides, the Ratio Ki in experiment [5] amounted to 14; in the experiment listed under Rattus norvegicus, 4850.

For orientation: pKi means the Ki on a negative log10 scale, so that one unit is a factor of ten. Broadly, the pEC50 is −log10 of the EC50, conventionally taken in molar units. The Emax is the maximal effect, on the per cent scale that the assay sets.
